Experimental data published in patent US20120308993A1 (priority 2009, published 2012).
Values joined by “and” are separate entries in the source; they are usually repeats but may differ in a detail not shown here. Equal values may be shown once.

Columns and labels:
Influenza A (H1N1) 2009 [1] = conditions: in vivo
Influenza A (H1N1) 2009 [2] = conditions: in vivo; remark: listed apart in the source

`CCOC(=O)C1=C[C@@H](OC(CC)CC)[C@H](NC(C)=O)[C@@H](N)C1` [Oseltamivir, oseltamivir] was tested, and the RT-PCR (Influenza A (H1N1) 2009 [1]) was “positive”, the ct value (Influenza A (H1N1) 2009 [1]) was 24 and 32 and 35 and the “fever settled, day of illness” value (Influenza A (H1N1) 2009 [2]) was 5. For the same compound, the “outcome of close contacts given oseltamivir prophylaxis” value (Influenza A (H1N1) 2009 [2]) was “remained well”.
